Experiments:
[1] = tested on: plasma GH concentrations; assay: Growth hormone releasing activity in the infant rat (plasma GH by RIA); format: in vivo, Sprague Dawley rats; details: Table 1 test series; male 10-day-old rats; 300 μg/kg subcutaneously; plasma 15 min later
Procedure: Male 10-day-old Sprague Dawley rats, about 25 g body weight were used.
One hour before the experiments, pups were separated from their respective dams and were divided randomly into groups of eight each.
Pups were acutely challenged subcutaneously with 100 μl of solvent (DMSO, final dilution 1:300 in physiological saline), hexarelin (Tyr-Ala-His-D-Mrp-Ala-Trp-D-Phe-Lys-NH2, used as a reference drug), or new compounds (300 μg/kg) and killed by decapitation 15 min later.
Trunk blood was collected and centrifuged immediately. Plasma samples were stored at −20° C. until assayed for the determination of plasma GH concentrations.
Growth hormone concentrations in plasma were measured by RIA using materials provided by the National Institute of Diabetes, Digestive and Kidney Diseases (NIDDK) of the National Institute of Health U.S.A.
Values were expressed in terms of the NIDDK-rat-GH-RP-2 standard (potency 21 U/mg) as ng/ml of plasma.
The minimum detectable value of rat GH was about 1.0 ng/ml, and intraassay variability was about 6%.

[2] = tested on: Concentration GH; assay: Time dependence of the oral activity in the dog (plasma GH); format: in vivo, dog (beagles); design: AUC (Area under the curve) of GH concentration: unit not given here; details: 1 mg/kg per os
Procedure: Furthermore the time dependence of the oral activity in the dog (1 mg/kg; per os) was estimated for example 1 (H-Aib-D-Trp-D-gTrp-CHO). Well-trained beagles of either sex, >10 year, 10-15 kg by weight, were used. Animals were fed normal dry food with water ad libitum and were on a 12 h-light/12 h-dark regimen with on at 7.00. The compound was administered orally to the dogs which had fasted since 16.00 of the preceding day. Blood samples were taken 20 min before administration, at administration and 15, 30, 60, 90, 120 and 180 min after administration.

CC(C)(N)C(=O)N[C@H](Cc1c[nH]c2ccccc12)C(=O)N[C@H](Cc1c[nH]c2ccccc12)NC=O [Example 1, H-Aib-D-Trp-D-gTrp-CHO]
GH [1]: 158.8 ± 39.4 ng/mL
AUC (Area under the curve) of GH concentration ([2]; MEAN VALUE of 6 dogs): 675.35
Concentration GH ([2]; MEAN VALUE of 6 dogs, t 0 min (at administration)): 1.79 ng/mL
Concentration GH ([2]; MEAN VALUE of 6 dogs, t 15 min after administration): 5.32 ng/mL
Concentration GH ([2]; MEAN VALUE of 6 dogs, t 30 min after administration): 5.5 ng/mL
Concentration GH ([2]; MEAN VALUE of 6 dogs, t 60 min after administration): 3.52 ng/mL
Concentration GH ([2]; MEAN VALUE of 6 dogs, t 90 min after administration): 3.59 ng/mL
Concentration GH ([2]; MEAN VALUE of 6 dogs, t 120 min after administration): 3.42 ng/mL
Concentration GH ([2]; MEAN VALUE of 6 dogs, t 180 min after administration): 3.04 ng/mL
Concentration GH ([2]; MEAN VALUE of 6 dogs, t −20 min (before administration)): 2.07 ng/mL
AUC (Area under the curve) of GH concentration ([2]; dog DAKOTA): 328.53
Concentration GH ([2]; dog DAKOTA, t 0 min (at administration)): 0.35 ng/mL
Concentration GH ([2]; dog DAKOTA, t 15 min after administration): 2.11 ng/mL
Concentration GH ([2]; dog DAKOTA, t 30 min after administration): 0.54 ng/mL
Concentration GH ([2]; dog DAKOTA, t 60 min after administration): 0.17 ng/mL
Concentration GH ([2]; dog DAKOTA, t 90 min after administration): 0.4 ng/mL
Concentration GH ([2]; dog DAKOTA, t 120 min after administration): 3.58 ng/mL
Concentration GH ([2]; dog DAKOTA, t 180 min after administration): 3.46 ng/mL
Concentration GH ([2]; dog DAKOTA, t −20 min (before administration)): 0.48 ng/mL
AUC (Area under the curve) of GH concentration ([2]; dog FORREST LEE): 888.91
Concentration GH ([2]; dog FORREST LEE, t 0 min (at administration)): 2.01 ng/mL
Concentration GH ([2]; dog FORREST LEE, t 15 min after administration): 6.38 ng/mL
Concentration GH ([2]; dog FORREST LEE, t 30 min after administration): 8.48 ng/mL
Concentration GH ([2]; dog FORREST LEE, t 60 min after administration): 4.41 ng/mL
Concentration GH ([2]; dog FORREST LEE, t 90 min after administration): 6.42 ng/mL
Concentration GH ([2]; dog FORREST LEE, t 120 min after administration): 3.71 ng/mL
Concentration GH ([2]; dog FORREST LEE, t 180 min after administration): 3.18 ng/mL
Concentration GH ([2]; dog FORREST LEE, t −20 min (before administration)): 1.43 ng/mL
AUC (Area under the curve) of GH concentration ([2]; dog JORMA): 658.38
Concentration GH ([2]; dog JORMA, t 0 min (at administration)): 2.75 ng/mL
Concentration GH ([2]; dog JORMA, t 15 min after administration): 8.91 ng/mL
Concentration GH ([2]; dog JORMA, t 30 min after administration): 6.85 ng/mL
Concentration GH ([2]; dog JORMA, t 60 min after administration): 2.65 ng/mL
Concentration GH ([2]; dog JORMA, t 90 min after administration): 2.47 ng/mL
Concentration GH ([2]; dog JORMA, t 120 min after administration): 2.48 ng/mL
Concentration GH ([2]; dog JORMA, t 180 min after administration): 2.82 ng/mL
Concentration GH ([2]; dog JORMA, t −20 min (before administration)): 3.58 ng/mL
AUC (Area under the curve) of GH concentration ([2]; dog MARKUS): 944.26
Concentration GH ([2]; dog MARKUS, t 0 min (at administration)): 2.55 ng/mL
Concentration GH ([2]; dog MARKUS, t 15 min after administration): 6.11 ng/mL
Concentration GH ([2]; dog MARKUS, t 30 min after administration): 6.9 ng/mL
Concentration GH ([2]; dog MARKUS, t 60 min after administration): 6.51 ng/mL
Concentration GH ([2]; dog MARKUS, t 90 min after administration): 5.18 ng/mL
Concentration GH ([2]; dog MARKUS, t 120 min after administration): 4.54 ng/mL
Concentration GH ([2]; dog MARKUS, t 180 min after administration): 4.12 ng/mL
Concentration GH ([2]; dog MARKUS, t −20 min (before administration)): 2.45 ng/mL
AUC (Area under the curve) of GH concentration ([2]; dog RAZ DEGAN): 510.64
Concentration GH ([2]; dog RAZ DEGAN, t 0 min (at administration)): 1.64 ng/mL
Concentration GH ([2]; dog RAZ DEGAN, t 15 min after administration): 3.58 ng/mL
Concentration GH ([2]; dog RAZ DEGAN, t 30 min after administration): 6.37 ng/mL
Concentration GH ([2]; dog RAZ DEGAN, t 60 min after administration): 3.02 ng/mL
Concentration GH ([2]; dog RAZ DEGAN, t 90 min after administration): 2.61 ng/mL
Concentration GH ([2]; dog RAZ DEGAN, t 120 min after administration): 1.94 ng/mL
Concentration GH ([2]; dog RAZ DEGAN, t 180 min after administration): 1.49 ng/mL
Concentration GH ([2]; dog RAZ DEGAN, t −20 min (before administration)): 2.14 ng/mL
AUC (Area under the curve) of GH concentration ([2]; dog TAYLOR): 721.34
Concentration GH ([2]; dog TAYLOR, t 0 min (at administration)): 1.41 ng/mL
Concentration GH ([2]; dog TAYLOR, t 15 min after administration): 4.8 ng/mL
Concentration GH ([2]; dog TAYLOR, t 30 min after administration): 3.89 ng/mL
Concentration GH ([2]; dog TAYLOR, t 60 min after administration): 4.34 ng/mL
Concentration GH ([2]; dog TAYLOR, t 90 min after administration): 4.43 ng/mL
Concentration GH ([2]; dog TAYLOR, t 120 min after administration): 4.28 ng/mL
Concentration GH ([2]; dog TAYLOR, t 180 min after administration): 3.18 ng/mL
Concentration GH ([2]; dog TAYLOR, t −20 min (before administration)): 2.32 ng/mL

— patent US6861409B2, “Growth hormone secretagogues” (Zentaris AG, priority 2000, dated 2005)
